From patent US9556160B2, “Guanidine compound” (Astellas Pharma Inc., priority 2011, dated 2017)

Legend:
[1] = target: human VAP-1 enzyme (SSAO) (Homo sapiens (Human), UniProt Q16853); experiment: Inhibitory effect on human VAP-1 enzyme (SSAO) activity, radiochemistry-enzymatic assay with 14C-benzylamine; type: biochemical; settings: CHO-expressed human VAP-1, 14C-benzylamine 1×10^−5 mol/L
Procedure: (§1) After homogenizing CHO (Chinese Hamster Ovary) cells stably expressing a human VAP-1 enzyme (SSAO) in a 50 mM phosphate buffer containing 1% NP-40, an enzyme suspension was obtained by taking the supernatant obtained by centrifugation. The enzyme suspension was preincubated with the compound of the present invention in a 96-well microplate at room temperature for 30 minutes. Subsequently, the enzyme suspension was incubated with ^14C-benzylamine (a final concentration of 1×10^−5 mol/L) to a final volume of […] at 37° C. for 1 hour. The enzymatic reaction was stopped by the addition of 2 mol/L (50 pt) of citric acid.

[2] = target: rat VAP-1 enzyme (SSAO) (Rattus norvegicus (Rat), UniProt O08590); experiment: Inhibitory effect on rat VAP-1 enzyme (SSAO) activity, radiochemistry-enzymatic assay with 14C-benzylamine; type: biochemical; settings: CHO-expressed rat VAP-1, 14C-benzylamine 1×10^−5 mol/L
Chain of rat VAP-1 enzyme (SSAO) (O08590 whole entry): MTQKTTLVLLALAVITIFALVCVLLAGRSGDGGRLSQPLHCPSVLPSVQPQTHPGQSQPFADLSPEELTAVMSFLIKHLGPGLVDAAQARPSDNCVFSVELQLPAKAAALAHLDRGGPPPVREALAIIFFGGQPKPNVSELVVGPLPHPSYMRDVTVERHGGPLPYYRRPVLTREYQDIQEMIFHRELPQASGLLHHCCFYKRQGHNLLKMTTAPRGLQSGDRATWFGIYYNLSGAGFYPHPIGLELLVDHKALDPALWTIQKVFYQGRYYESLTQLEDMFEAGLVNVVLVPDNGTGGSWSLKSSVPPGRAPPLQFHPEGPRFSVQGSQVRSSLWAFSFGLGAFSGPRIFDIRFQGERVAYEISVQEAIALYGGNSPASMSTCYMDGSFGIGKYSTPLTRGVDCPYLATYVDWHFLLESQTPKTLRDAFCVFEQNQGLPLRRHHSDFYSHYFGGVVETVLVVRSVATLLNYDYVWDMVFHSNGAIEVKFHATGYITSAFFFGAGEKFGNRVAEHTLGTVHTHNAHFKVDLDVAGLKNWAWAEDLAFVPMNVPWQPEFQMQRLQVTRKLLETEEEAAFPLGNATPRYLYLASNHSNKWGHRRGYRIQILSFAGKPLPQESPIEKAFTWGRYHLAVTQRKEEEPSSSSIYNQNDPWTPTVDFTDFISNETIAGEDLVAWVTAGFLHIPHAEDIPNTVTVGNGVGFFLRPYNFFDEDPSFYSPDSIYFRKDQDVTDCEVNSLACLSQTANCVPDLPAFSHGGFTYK
Procedure: as §1, with “rat” for “human”, “μL)” for “pt)”, “acid. The oxidation products were extracted directly in a 200 μL toluene scintillator, and the radioactivity was measured with a scintillation spectrometer.” for “acid.”

[3] = system: VAP-1 enzyme (SSAO) activity in rat plasma; experiment: Inhibitory effect on rat VAP-1 enzyme (SSAO) activity in rat plasma after oral administration; type: in vivo, Wistar male rats; settings: rat plasma VAP-1 activity, oral 0.3 mg/kg; for Inhibition Ratio (%) 1 h: 1 h after administration; for Inhibition Ratio (%) 3 h: 3 h after administration; for Inhibition Ratio (%) 6 h: 6 h after administration; for Inhibition Ratio (%) 24 h: 24 h after administration
Procedure: Eight-week to twelve-week Wistar male rats were fasted for 20 hours, and orally administered with a test drug ([…]). Heparin blood collection from the tail vein was performed immediately before the administration, and at 1 h, 3 h, 6 h, 12 h, or 24 h after the administration. The resulting blood was subjected to centrifugation at 14000 rpm for 5 minutes to separate plasma, and the VAP-1 enzyme activity in the resulting plasma was measured by a radio-enzyme assay method.
For the radio-enzyme assay method, ^14C-benzylamine which is a synthetic substrate (10 μM) was reacted with the resulting plasma at 37° C., and the resulting metabolite was extracted with a mixture of toluene/ethyl acetate. The radioactivity was measured and taken as a VAP-1 enzyme activity in the plasma. The effect of the test drug was calculated from the inhibitory ratio (%) of the VAP-1 activity after the administration of the test drug relative to the VAP-1 activity in the plasma immediately before the administration.

[4] = system: albuminuria in STZ-treated rats; experiment: Effect on albuminuria in rats with diabetes mellitus (STZ); type: in vivo, SD rats; settings: oral 0.3 mg/kg once daily, after 4 weeks; for amount of urinary albumin excretion: 24-hour urine
Procedure: Seven-to eight-week SD rats (having weights up to 200 to 250 g during fasting) were used and fasted for 20 hours, and then intraperitoneally administered with 60 mg/ml/kg of streptozotocin (STZ) prepared with a 2 mmol/l citric acid buffer (pH 4.5). At the same time, the control rats were injected with the same amount of a 2 mmol/l citric acid buffer (pH 4.5).
The test substance was given daily for 4 weeks after the treatment with STZ. After 4 weeks of the treatment with the test substance, 24-hour urine collection was performed using metabolic cages.

Chain of human VAP-1 enzyme (SSAO) (Q16853 whole entry): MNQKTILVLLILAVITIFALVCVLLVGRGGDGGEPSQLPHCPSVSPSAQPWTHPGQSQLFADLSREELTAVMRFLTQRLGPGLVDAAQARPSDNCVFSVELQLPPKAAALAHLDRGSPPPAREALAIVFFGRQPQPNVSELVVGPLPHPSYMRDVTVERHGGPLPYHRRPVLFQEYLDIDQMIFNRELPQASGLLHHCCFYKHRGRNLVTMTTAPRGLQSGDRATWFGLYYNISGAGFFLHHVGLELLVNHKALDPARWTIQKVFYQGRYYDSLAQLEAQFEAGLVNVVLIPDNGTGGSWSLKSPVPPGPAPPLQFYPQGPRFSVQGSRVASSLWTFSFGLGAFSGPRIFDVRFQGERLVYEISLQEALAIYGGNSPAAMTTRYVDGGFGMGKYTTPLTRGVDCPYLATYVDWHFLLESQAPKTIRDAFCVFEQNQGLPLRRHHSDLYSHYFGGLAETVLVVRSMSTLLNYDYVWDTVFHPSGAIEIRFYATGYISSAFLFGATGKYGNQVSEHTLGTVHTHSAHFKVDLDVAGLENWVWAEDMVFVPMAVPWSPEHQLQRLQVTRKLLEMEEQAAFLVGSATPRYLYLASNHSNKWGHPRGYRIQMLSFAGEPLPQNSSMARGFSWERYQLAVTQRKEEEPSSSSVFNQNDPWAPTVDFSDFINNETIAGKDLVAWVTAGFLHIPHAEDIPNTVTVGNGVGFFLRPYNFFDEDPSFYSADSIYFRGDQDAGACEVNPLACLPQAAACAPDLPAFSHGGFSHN

Row | Compound | IC50 [1] | IC50 [2] | Inhibition Ratio (%) 1 h [3] | Inhibition Ratio (%) 3 h [3] | Inhibition Ratio (%) 6 h [3] | Inhibition Ratio (%) 24 h [3] | urinary albumin excretion relative to that of the control group [4] | amount of urinary albumin excretion [4]
1 | CC(=O)N1CCC(COc2ncc(-c3cccc(COC(=O)NC(=N)N)c3F)cn2)CC1 [Example 11] | 5.2 nM | 2.2 nM | 64% | 70% | 63% | 12% | 1.5 times | 103 mg/gCr
2 | Cn1cc(OC2CN(c3cccc(COC(=O)NC(=N)N)c3F)C2)ccc1=O [Example 557] | 11 nM | 1.6 nM | 53% | 71% | 56% | 22% | 2.3 times | 105 mg/gCr
3 | N=C(N)NC(=O)OCc1cccc(N2CC(C3CCN(C(=O)C4CC4)CC3)C2)c1F [Example 561] | 9.6 nM | 1.6 nM | 91% | 92% | 85% | 64% | – | –
4 | COCC(=O)N1CCC(C2CN(c3cccc(COC(=O)NC(=N)N)c3F)C2)CC1 [Example 562] | 14 nM | 1.4 nM | 79% | 81% | 78% | 37% | – | –
5 | COCCC(=O)N1CCC(C2CN(c3cccc(COC(=O)NC(=N)N)c3F)C2)CC1 [Example 563] | 20 nM | 1.5 nM | 69% | 77% | 70% | 43% | – | –
6 | CS(=O)(=O)N1CCC(C2CN(c3cccc(COC(=O)NC(=N)N)c3F)C2)CC1 [Example 564] | 19 nM | 1.5 nM | 89% | 90% | 85% | 59% | – | –
7 | COCCOc1cc(N2CCN(c3cccc(COC(=O)NC(=N)N)c3F)CC2)ccn1 [Example 565] | 19 nM | 2.5 nM | 77% | 83% | 71% | 47% | – | –
8 | COCc1cc(N2CCN(c3cccc(COC(=O)NC(=N)N)c3F)CC2)ccn1 [Example 566] | 6.3 nM | 1.2 nM | 75% | 74% | 70% | 38% | – | –
